Data reported in paper PMC7247319, “The mitochondria-targeted peptide SS-31 binds lipid bilayers and modulates surface electrostatics as a key component of its mechanism of action” (The Journal of Biological Chemistry, 2020).
Where a SMILES comes first, the peptide text is derived from it. [ ]: non-standard residue; d: D form. Dmt = Cc1cc(O)cc(C)c1C[C@H](N)C(=O)O

Key:
Test in all cases: SS-31 binding isotherms by endogenous 2′,6′-Dmt fluorescence (peptide and lipid titrations)
[1] = system: LUVs containing 20 mol % MLCL in a POPC background; conditions: 20% MLCL/POPC LUVs, 20 mM HEPES-KOH pH 7.5, Scatchard and Langmuir fits of fluorescence isotherms
Source text: (§1) The interaction of basic amphipathic peptides with negatively charged membranes depends on the electric field originating from the bilayer surface as well as specific electrostatic and hydrophobic interactions between the peptide and lipids (Fig. S2). The first objective of this study was to quantitatively evaluate the binding of SS-31 to model membranes with specific lipid composition. For spectroscopic analysis of SS-31 binding, we made use of the endogenous spectral properties of the 2′,6′-dimethyltyrosine (2′,6′-Dmt) side chain at the second position in the peptide. Our initial spectral characterization of SS-31 confirmed the feasibility of using endogenous peptide fluorescence to quantify peptide-membrane interactions (supporting Results A and B and Figs. S3 and S4). We therefore proceeded to measure the binding of SS-31 to large unilamellar vesicles (LUVs) containing anionic lipids in a host background of the zwitterionic lipid 1-palmitoyl-2-oleoyl-sn-glycero-3-phosphocholine (POPC, 16:0/18:1 PC). The anionic lipids included 1′,3′-bis[1,2-dioleoyl-sn-glycero-3-phospho]-glycerol (tetraoleoylcardiolipin (TOCL), all acyl chains 18:1), monolysocardiolipin (MLCL, all acyl chains 18:1), or 1-palmitoyl-2-oleoyl-sn-glycero-3-phosphoglycerol (POPG, 16:0/18:1 PG). Binding measurements were performed using two complementary approaches: (i) titration of fixed concentrations of LUVs with peptide and (ii) titration of fixed concentrations of peptide with LUVs (supporting Results C and Fig. S5). […]
(§2) Figure 2. […] A–C, fluorescence-based measurements. […] Statistical differences within each data set were determined relative to TOCL-containing membranes: •, p < 0.05; ••, p < 0.01.
(§3) To obtain equilibrium binding parameters n (the number of lipid molecules per peptide bound) and KD (the dissociation constant), we analyzed binding isotherm data by Scatchard analysis (Fig. 2C) and by fits of the data to Langmuir adsorption models (Equations S2 and S3 for peptide and lipid titrations, respectively). […]

[2] = system: LUVs containing 20 mol % POPG in a POPC background; conditions: 20% POPG/POPC LUVs, 20 mM HEPES-KOH pH 7.5, Scatchard and Langmuir fits of fluorescence isotherms
Source text: as §1, §2, §3

[3] = system: LUVs containing 20 mol % TOCL in a POPC background; conditions: 20% TOCL/POPC LUVs, 20 mM HEPES-KOH pH 7.5, Scatchard and Langmuir fits of fluorescence isotherms
Source text: as §1, §2, §3

For `Cc1cc(O)cc(C)c1C[C@H](NC(=O)[C@H](N)CCCNC(=N)N)C(=O)N[C@@H](CCCCN)C(=O)N[C@@H](Cc1ccccc1)C(N)=O` [SS-31, D-Arg-2′6′-dimethyl-Tyr-Lys-Phe-NH2] (H-[dR][Dmt]KF-NH2), the “n (number of lipid molecules per peptide bound), average lipid/peptide stoichiometry” value [1] was 7.4, the “n (number of lipid molecules per peptide bound), average lipid/peptide stoichiometry” value [2] was 15.4 and the “n (number of lipid molecules per peptide bound), average lipid/peptide stoichiometry” value [3] was 6.9.
